The structures appear in SMILES notation.

The assay deals with Nischarin / imidazoline I1 receptor (Rattus norvegicus). In words: Displacement of [125I]p-iodoclonidine from imidazoline receptor I-1 in rat pheochromocytoma cells. In general terms: In a radioligand displacement assay an active substance lowers the binding of a labelled ligand.
What is called Ki is a measure of affinity in units of concentration, obtained from inhibition or displacement. A high value points to a looser hold on the target. In the case of `CC(Oc1ccccc1)C1=NCCN1` (stereo not given), the Ki amounted to 0.309 µM.

As for `C[C@@H](CC1=NCCN1)c1ccccc1`, affinity was put at a Ki of 7.24 µM.

Take `c1ccc(CCC2=NCCN2)cc1` [2-Phenethyl-4,5-dihydro-1H-imidazole]: the Ki is 3.71 µM.

In turn, `C[C@H](CC1=NCCN1)c1ccccc1` registered a Ki of 0.589 µM.

For `CC(CC1=NCCN1)c1ccccc1` (stereo not given), the Ki worked out at 6.03 µM.

Values taken from BindingDB's records for doi:10.1021/jm021113r (University of Camerino, 2003).
